# Structures can show the parent of a compound that is named as a salt.
# B1: interleukin 12 (protein, UniProt P29459 23-219; P29460 23-328, looked up)
# Interleukin-12 subunit alpha: RNLPVATPDPGMFPCLHHSQNLLRAVSNMLQKARQTLEFYPCTSEEIDHEDITKDKTSTVEACLPLELTKNESCLNSRETSFITNGSCLASRKTSFMMALCLSSIYEDLKMYQVEFKTMNAKLLMDPKRQIFLDQNMLAVIDELMQALNFNSETVPQKSSLEEPDFYKTKIKLCILLHAFRIRAVTIDRVMSYLNAS
# Interleukin-12 subunit beta: IWELKKDVYVVELDWYPDAPGEMVVLTCDTPEEDGITWTLDQSSEVLGSGKTLTIQVKEFGDAGQYTCHKGGEVLSHSLLLLHKKEDGIWSTDILKDQKEPKNKTFLRCEAKNYSGRFTCWWLTTISTDLTFSVKSSRGSSDPQGVTCGAATLSAERVRGDNKEYEYSVECQEDSACPAAEESLPIEVMVDAVHKLKYENYTSSFFIRDIIKPDPPKNLQLKPLKNSRQVEVSWEYPDTWSTPHSYFSLTFCVQVQGKSKREKKDRVFTDKTSATVICRKNASISVRAQDRYYSSSWSEWASVPCS
# notes: enhancer molecule, cytokine purchased from Sigma
# What was measured:
# Format in all cases: cell-based
# [1] = tested on: panel of cell lines that included NSCLC, HNSCC, melanoma, and CRC; assay: WST8 in vitro sensitivity to MTAs with and without EM
# Description: Day 1: cells were harvested cells from flask (4 mL accutase for T175 for 3-5 minutes), and spin down for 5 mins at 1200 rpm. The supernatant was poured off, and the pellet gently resuspended in 1 mL media. Countess counts were performed, and the cells were diluted in media (10% FBS). With multi-channel pipette, 2500 cells were seeded in 100 uL of media (10% FBS) in each well of 96 well plate. The cells were let to adhere and grow for 24 hours. Day 2: serial drug dilutions of MTAs+/−EMs at 5× of concentrations (as done above) were performed in media (10% FBS). 20 uL of media form each well of the 96 well plate (80 uL media left in wells) was removed, and 20 uL of appropriate 5× drug dilutions was added to each respective well (for a 1× conc). The cells were incubated with drug for 72 hours in 37C incubator. Day 5: 10 uL of WST-8 reagent was added to each well of the 96 well plate and mixed gently. the plates were incubated up to 4 hours at 37C in dark, and absorbance readings were taken at […] and 600 nm wavelengths at 1, 2, 3 and 4h, until control absorbance levels were 1.5-2.0).
# We used a panel of cell lines that included NSCLC, HNSCC, melanoma, and CRC. These cell lines are a good model system harboring similar (epi)genetic changes found in patients' tumors. We used the WST8 assay to determine the in vitro sensitivity to various MTAs with and without EM1.
# A-253 cells = assay: Western blot of protein biomarkers; conditions: spermidine (50 μM)+GM-CSF (50 ng/mL)
# Description: (§1) MTA and EM effects on protein biomarker expression were measured by western blotting. For the assay cell lines (Ca9-22, PE/CA-PJ15, HTB-38, HPAF-II, CAL27, BICR-16, A-253, Calu-6, PC-9, H1838, RPMI-7951 and A7) were cultured and treated with doses of MTAs alone, EMs alone and in combination and then lysed for protein analysis. This method can readily be conducted under adherent or suspension conditions, manually or on automated instruments, such as SnapPath. A total of 0.3×10^6 cells per well were seeded in 6 well plates with 10% FBS-containing media and incubated for 24 hours. Cells were then treated with MTA and/or EM concentrations for 24 hours. For total protein extraction, briefly, each sample media was collected, and wells were washed with HMS, and the wash was combined with its respective media collection. Cells were then detached using Accutase solution and again collected in its respective sample media and another HMS well wash and collection was performed. All cell solutions were centrifuged, washed with ice-cold PBS, and centrifuged again. Cell pellets were lysed in 250 μL of ice-cold 1× lysis buffer with protease and phosphatase inhibitor cocktails and incubated for 10 minutes on ice. Lysates were clarified with a centrifugation (14,000 rpm) for 10 minutes at 4° C. Cell lysates were quantified using Bio-Rad DC Protein Assay (Bio-Rad Cat. #5000116).
# (§2) For all western blots, an equal amount of protein (3-5 μg) was loaded into SDS-polyacrylamide gels (Mini-Protean TGX Precast Gel; Bio-Rad, e.g. 7.5%, Cat. #4561024; 10%, Cat. #4561035; 12%, Cat. #4561045; or 4-15%, Cat. #4561085). Proteins were separated at 215V for at least 30 minutes in 1× Tris/Glycine/SDS buffer (Bio-Rad Cat. #1610772) and transferred to PVDF membranes using a Trans-Blot Turbo (Bio-Rad Cat. #1704155) for 7 minutes in transfer buffer (Trans-Blot Turbo Transfer Kit, Bio-Rad Cat. #1704273). Blots were blocked at room temperature for 1 hour with 5% non-fat dry milk in tris-buffered saline with Tween 20 (TBST; 15 mM Tris-HCl, pH 7.5, 200mMNaCl and 0.1% Tween 20). Membranes were incubated with primary antibodies at 4° C. overnight and at room temperature for 1 hour the next day; all primary antibodies were diluted following manufacturer's specifications in TBST with either 5% BSA or 5% non-fat dry milk. Membranes were washed in TBST for 5 minutes, three times, and incubated with HRP-conjugated secondary antibodies diluted 1:5000 in TBST with 5% non-fat dry milk at room temperature for 1 hour (anti-rabbit IgG, Bio-Rad Cat. #1706515; or anti-mouse IgG, Bio-Rad Cat. #1706516). Membranes were then washed in TBST for 10 minutes, three times, and target proteins were identified using Clarity Western ECL Substrate (Bio-Rad Cat. #1705061) on autoradiography film (GenHunter Cat. #B581, Nashville, Tenn., USA). Other assay types, such as Luminex multiplexed immunoassays, ICC, IHC, flow cytometry, etc. can be used readily.
# RPMI-1975 = assay: HoPI live cell staining; conditions: single agent, 24 hours
# Description: (§3) A double stain of Hoechst 33342 and propidium iodide allows for the determination of cell viability with high specificity and low background noise, as compared to trypan blue staining. Hoechst 33342 is a cell permeable blue fluorescent nuclear stain which will stain all cell types. Propidium iodide is a cell impermeable red fluorescent nuclear stain that will only bind to the nuclei of cells with compromised membranes (dead cells). The staining can be performed rapidly on live cell suspensions within 15 minutes. 25 uL of 4× Hoechst 33342 Solution (40 ug/mL) and 25 uL of 4×Propidium Iodide Solution are added to 50 uL of cell suspension. The suspension was gently mixed 10 times and 50 uL was immediately transferred to a microfluidic cell counting chip. A 365 nm LED was used to excite both Hoechst 33342 and propidium iodide. Images of the cells were captured using a 10× objective lens on an Olympus microscope using a Canon EOS 6D camera using an ISO of 800 and an exposure of 2 seconds; both JPEG and RAW images were saved for analysis. The blue channel was used to measure the total number of cells and the red channel was used to measure the number of dead cells. Cell counting was performed automatically by the Image Pro software (Media Cybernetics, Inc).
# MTA and EM effects on apoptosis were measured by Hoechst-Propidium Iodide staining (HoPI). For the assay, cells were seeded in 6-well plates at 400K cells per well, in 2 mL of 10% FBS-containing media and incubated for 24 hours. At 24 hours, a 1 nM to […] range of MTA and/or 1 ng/mL to 1 mg/mL range of EM doses was added and incubated for 24 hours. After 24 hours incubation respective cells' media was collected, added the 1× HBSS wash from the plate in the respective tube. Adherent cells were detached by treating with Accutase for 6 minutes and collected in respective tubes. All samples were centrifuged for 5 minutes at 1200 RPM. […] The area, mean intensity, standard deviation of the mean intensity, minimum intensity, maximum intensity and perimeter were measured for each cellular region in the red channel and also in the blue channel. […]
# Ca-922 cell line = assay: HoPI live cell staining; set-up: concentration or dose not given beside the values; conditions: single agent, 24 hours
# Description: as §3
# MTA and EM effects on apoptosis were measured by Hoechst-Propidium Iodide staining (HoPI). For the assay, cells were seeded in 6-well plates at 400K cells per well, in 2 mL of 10% FBS-containing media and incubated for 24 hours. At 24 hours, a 1 nM to […] range of MTA and/or 1 ng/mL to 1 mg/mL range of EM doses was added and incubated for 24 hours. After 24 hours incubation respective cells' media was collected, added the 1× HBSS wash from the plate in the respective tube. Adherent cells were detached by treating with Accutase for 6 minutes and collected in respective tubes. All samples were centrifuged for 5 minutes at 1200 RPM. The cell pellets were resuspended in PBS and centrifuged again for 5 minutes at 1200 RPM. Cell pellets were resuspended in 200 uL of PBS and mixed properly to get single cell suspension. 50 uL of cell suspension was added into separate tubes having 10 uL of a 2× HOPI solution (20 ug/mL Hoechst 33342 and 20 ug/mL propidium iodide solution) to get a final concentration of Hoechst 33342 and propidium iodide to […]. Make up the volume to 100 uL with 40 uL of PBS. Samples were mixed thoroughly for even cell staining and the microfluidsic chip wells were each filled with 10 uL of sample. Chips were then incubated in the dark for 20 minutes. A 365 nm LED was used to excite both Hoechst 33342 and propidium iodide as they were visualize under a microscope. Cell images were captured using a 10× objective lens on an Olympus microscope using a Canon EOS 6D camera with an ISO of 800 and an exposure of 2 seconds; both JPEG and RAW images were saved for analysis. The blue channel was used to measure the total number of cells and the red channel was used to measure the number of dead cells. For image analysis, a copy of the image was created and converted directly into an 8-bit gray scale image. A threshold was placed on the image to create a binary mask; the threshold level was 20 intensity units out of 255 intensity units. Next, a particle analysis algorithm was applied to the binary mask and a set of cellular regions (between 100 to 800 cellular regions per image) was created. The original image was then split into red, green and blue channels. The area, mean intensity, standard deviation of the mean intensity, minimum intensity, maximum intensity and perimeter were measured for each cellular region in the red channel and also in the blue channel. The green channel was discarded. To discern between live and dead cells, the maximum intensity in the red channel was used with a threshold of 100 intensity units. Double plots were created using the intensity of the blue channel (X-axis) and the intensity of the red channel (Y-axis). […]
# [2] = tested on: H1975 (EGFR-double mutant line); assay: MTT cell survival assay; conditions: erlotinib 14 μM alone; H1975; 72 hours
# Description: Cells (10^4 cells/well) were grown in 96-well plates and exposed for 72 hours to different doses of erlotinib, alone or in combination with EM2. The percentage of cell survival was determined using the 3-(4, 5-dimethylthiazol-2-yl)-2, 5-diphenyltetrazolium bromide (MTT). Single drug alone and vehicle were kept as controls.
# PE/CA-PJ15 cells = assay: Western blot of protein biomarkers; conditions: spermidine (50 μM)+IL-12 (50 ng/mL)
# Description: as §1, §2
molecule,measurement,setting,value
interleukin 6 [EM4],"response enhancement (in vitro sensitivity to various MTAs with and without EM, WST8)",[1],"no, minimal and strong response enhancement"
granulocyte-macrophage colony-stimulating factor [EM10],Ki67 expression,A-253 cells; compared to both MTA and EM alone,enhanced reduction in Ki67 expression
same,LC3II expression,A-253 cells; compared to either alone,LC3II upregulation
same,p62 expression,A-253 cells; compared to either alone,reduction in p62
"COc1ncc(-c2ccc3nccc(-c4ccnnc4)c3c2)cc1NS(=O)(=O)c1ccc(F)cc1F [GSK458, Omipalisib, reference compound]",reduction in live cells (HoPI),RPMI-1975,30%
same,reduction in the number of live cells (HoPI),Ca-922 cell line,22%
"C=CC(=O)Nc1cc(Nc2nccc(-c3cn(C)c4ccccc34)n2)c(OC)cc1N(C)CCN(C)C [osimertinib, Osimertinib, reference compound]",reduction in the number of live cells (HoPI),Ca-922 cell line,41%
transforming growth factor-beta-1 [EM3],"response enhancement (in vitro sensitivity to various MTAs with and without EM, WST8)",[1],"no, minimal and strong response enhancement"
"C#Cc1cccc(Nc2ncnc3cc(OCCOC)c(OCCOC)cc23)c1 [erlotinib, Erlotinib hydrochloride, reference compound]","cell survival (MTT), effect of erlotinib alone",[2],absence of effect
B1,p62 expression,PE/CA-PJ15 cells,increased expression
same,LC3II over LC3I expression,"PE/CA-PJ15 cells; 24 hours, compared to either alone",marked increase in LC3II over LC3I expression

# Source: patent US20220339257A1, “METHODS TO INCREASE THE SENSITIVITY AND REVERSING THE RESISTANCE TO DRUGS” (Biomarker Strategies, LLC, priority 2019, published 2022)
